The text below walks through data of ChEMBL document CHEMBL6177931, “Exploring diverse frontiers: Advancements of bioactive 4-aminoquinoline-based molecular hybrids in targeted therapeutics and beyond” (Eur J Med Chem, 2024).

In data set [1] the target is T1, Acetylcholinesterase (Homo sapiens, UniProt P22303). In words: Inhibition of human AChE.
In data set [2] the target is Cholinesterase (Homo sapiens, UniProt P06276). In words: Inhibition of human BChE.
Data set [3] in a line: Cytotoxicity against human A375P cells assessed as cell viability incubated for 72 hrs by alamar blue reagent based assay. It is filed as functional.
The target in data set [4] is T2, Acetylcholinesterase (Electrophorus electricus, UniProt O42275). Nature of the data set: Inhibition of electric eel AChE using […] as substrate measured within 2 mins.
Data set [5] addresses T3, Cholinesterase (Equus caballus, UniProt P81908). Nature of the data set: Inhibition of equine serum BChE using […] as substrate measured within 2 mins.
Data set [6] can be described thus: Cytotoxicity against MDCK cells assessed as cell growth inhibition incubated for 72 hrs by MTT assay. Type of data set: toxicity, cell-based, Canis lupus familiaris. The note with it: dog. A general note: Tetrazolium assays rely on reduction of a dye to a coloured formazan, in cell work by metabolically active cells.
A short description of data set [7]: Antiproliferative activity against human Caco-2 cells assessed as cell growth inhibition incubated for 72 hrs by MTT assay. Type of data set: toxicity, cell-based.
A short description of data set [8]: Inhibition of ConA-induced IL-1beta secretion in female BALB/c mouse splenocyte incubated for 48 hrs by ELISA. Type of data set: functional, cell-based. On the technique in general: In an ELISA, binding on a coated surface is turned into a signal by an enzyme label.
Data set [9] can be described thus: Inhibition of ConA-induced IL-6 secretion in female BALB/c mouse splenocyte incubated for 48 hrs by ELISA. Type of data set: functional, cell-based.
Data set [10] in a line: Cytotoxicity against human Huh-7 cells assessed as reduction in cell viability incubated for 2 days by MTT assay. It is filed as toxicity, cell-based. As to conditions: time 2 day.
The nature of data set [11]: Inhibition of ConA-induced TNF-alpha secretion in female BALB/c mouse splenocyte incubated for 48 hrs by ELISA. Type of data set: functional, cell-based.
The test system of data set [12] is HL-60. Nature of the data set: Cytotoxicity against human HL-60 cells assessed as reduction in cell viability incubated for 24 hrs by MTT assay. It is filed as functional, cell-based. As to conditions: HL-60, 24 h.
In data set [13] the test system is Jurkat E6.1. In words: Cytotoxicity against human Jurkat E6.1 cells assessed as reduction in cell viability incubated for 24 hrs by MTT assay. It is filed as functional, cell-based. The note with it: Jurkat E6.1, 24 h.
In data set [14] the test system is Candida albicans. In words: Antifungal activity against Candida albicans MTCC 183 by agar streak dilution method. It is filed as functional.
The test system of data set [15] is Aspergillus niger. In words: Antifungal activity Aspergillus niger MTCC 282 by agar streak dilution method. Type of data set: organism-based.
Data set [16] deals with HepG2. Nature of the data set: Antiproliferative activity against human HepG2 cells assessed as reduction in cell proliferation incubated for 24 hrs by MTT assay. The note with it: HepG2, 24 h. It is filed as functional, cell-based.
For data set [17], the system named is Pseudomonas aeruginosa. In words: Antibacterial activity against Pseudomonas aeruginosa MTCC 741 by agar streak dilution method. Type of data set: functional.
Data set [18] deals with Bacillus subtilis. Nature of the data set: Antibacterial activity against Bacillus subtilis MTCC 619 by agar streak dilution method. Type of data set: functional.
Data set [19] deals with Staphylococcus aureus. In words: Antibacterial activity against Staphylococcus aureus MTCC 96 by agar streak dilution method. Type of data set: functional.
Data set [20] relates to Escherichia coli. In words: Antibacterial activity against Escherichia coli MTCC 739 by agar streak dilution method. It is filed as functional.
Data set [21] concerns MCF7. Nature of the data set: Antiproliferative activity against human MCF7 cells. Type of data set: functional, cell-based.
The test system of data set [22] is A549. In words: Antiproliferative activity against human A549 cells. Type of data set: functional, cell-based.
In data set [23] the target is T3, Cholinesterase. Nature of the data set: Inhibition of equine serum BChE using […] as substrate preincubated for 10 mins followed by substrate addition and measured after 5 mins by Ellman's reagent based spectrophotometric analysis. For orientation: DTNB colorimetry detects thiols as they appear.
Data set [24] addresses T2, Acetylcholinesterase. In words: Inhibition of electric eel AChE using […] as substrate preincubated for 10 mins followed by substrate addition and measured after 5 mins by Ellman's reagent based spectrophotometric analysis.
In data set [25] the target is T1, Acetylcholinesterase. Nature of the data set: Inhibition of human erythrocyte AChE using acetylthiocholine as substrate preincubated for 5 mins followed by substrate addition by Ellman's reagent based spectrophotometric analysis.

SMILES strings stand for the structures. In brackets after ≈: the same amount, converted by molar mass. Bounds are passed on as bounds.

T1 sequence (P22303 whole entry): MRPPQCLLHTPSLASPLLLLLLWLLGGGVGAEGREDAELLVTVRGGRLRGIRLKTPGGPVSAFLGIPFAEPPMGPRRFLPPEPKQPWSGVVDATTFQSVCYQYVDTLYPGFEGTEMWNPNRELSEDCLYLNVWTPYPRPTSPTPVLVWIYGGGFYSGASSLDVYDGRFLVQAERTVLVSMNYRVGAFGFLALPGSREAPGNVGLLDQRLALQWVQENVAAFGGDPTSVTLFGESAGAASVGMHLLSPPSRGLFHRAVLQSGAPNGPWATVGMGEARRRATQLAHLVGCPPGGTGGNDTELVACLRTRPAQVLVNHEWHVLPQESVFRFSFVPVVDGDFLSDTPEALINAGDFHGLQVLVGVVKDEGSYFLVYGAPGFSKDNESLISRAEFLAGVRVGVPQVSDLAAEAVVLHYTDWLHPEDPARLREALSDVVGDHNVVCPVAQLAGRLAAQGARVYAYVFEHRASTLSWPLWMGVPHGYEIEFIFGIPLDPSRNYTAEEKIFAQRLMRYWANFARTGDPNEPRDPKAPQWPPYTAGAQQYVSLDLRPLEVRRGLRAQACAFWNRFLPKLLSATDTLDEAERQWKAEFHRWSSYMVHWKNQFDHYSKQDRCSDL
Cholinesterase (Homo sapiens, UniProt P06276), sequence (P06276 whole entry): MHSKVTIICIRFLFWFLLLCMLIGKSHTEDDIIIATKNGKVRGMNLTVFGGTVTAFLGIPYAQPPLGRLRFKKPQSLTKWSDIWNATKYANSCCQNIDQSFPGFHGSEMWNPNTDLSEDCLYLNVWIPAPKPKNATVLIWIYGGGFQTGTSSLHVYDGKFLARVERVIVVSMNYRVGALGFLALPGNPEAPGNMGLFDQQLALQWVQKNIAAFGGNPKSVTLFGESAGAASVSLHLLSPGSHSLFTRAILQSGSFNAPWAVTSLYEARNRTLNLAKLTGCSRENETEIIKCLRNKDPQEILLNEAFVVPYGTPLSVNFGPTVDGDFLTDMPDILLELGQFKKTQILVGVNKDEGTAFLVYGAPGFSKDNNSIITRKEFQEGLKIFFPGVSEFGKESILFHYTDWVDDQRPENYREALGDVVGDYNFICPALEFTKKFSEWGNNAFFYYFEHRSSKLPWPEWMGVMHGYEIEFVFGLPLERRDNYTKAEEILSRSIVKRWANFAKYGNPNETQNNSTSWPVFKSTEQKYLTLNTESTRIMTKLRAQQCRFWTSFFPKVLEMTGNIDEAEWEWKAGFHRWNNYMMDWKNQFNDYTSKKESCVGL
T3 sequence (P81908 whole entry): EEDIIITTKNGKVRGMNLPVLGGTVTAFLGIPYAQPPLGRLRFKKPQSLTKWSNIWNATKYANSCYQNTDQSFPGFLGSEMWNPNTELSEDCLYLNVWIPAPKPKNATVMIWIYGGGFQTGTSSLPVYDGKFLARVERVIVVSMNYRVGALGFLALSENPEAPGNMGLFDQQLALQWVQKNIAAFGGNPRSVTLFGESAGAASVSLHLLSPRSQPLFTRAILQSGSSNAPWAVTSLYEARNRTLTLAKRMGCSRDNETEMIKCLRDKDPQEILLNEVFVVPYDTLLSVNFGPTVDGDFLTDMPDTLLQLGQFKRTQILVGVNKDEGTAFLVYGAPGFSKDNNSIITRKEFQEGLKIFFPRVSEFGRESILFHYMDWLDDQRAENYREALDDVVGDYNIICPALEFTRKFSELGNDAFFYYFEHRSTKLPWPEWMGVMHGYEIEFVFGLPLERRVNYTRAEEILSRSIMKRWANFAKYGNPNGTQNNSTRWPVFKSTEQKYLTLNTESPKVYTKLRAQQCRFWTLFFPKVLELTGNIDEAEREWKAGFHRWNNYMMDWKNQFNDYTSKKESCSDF
T2 sequence (O42275 whole entry): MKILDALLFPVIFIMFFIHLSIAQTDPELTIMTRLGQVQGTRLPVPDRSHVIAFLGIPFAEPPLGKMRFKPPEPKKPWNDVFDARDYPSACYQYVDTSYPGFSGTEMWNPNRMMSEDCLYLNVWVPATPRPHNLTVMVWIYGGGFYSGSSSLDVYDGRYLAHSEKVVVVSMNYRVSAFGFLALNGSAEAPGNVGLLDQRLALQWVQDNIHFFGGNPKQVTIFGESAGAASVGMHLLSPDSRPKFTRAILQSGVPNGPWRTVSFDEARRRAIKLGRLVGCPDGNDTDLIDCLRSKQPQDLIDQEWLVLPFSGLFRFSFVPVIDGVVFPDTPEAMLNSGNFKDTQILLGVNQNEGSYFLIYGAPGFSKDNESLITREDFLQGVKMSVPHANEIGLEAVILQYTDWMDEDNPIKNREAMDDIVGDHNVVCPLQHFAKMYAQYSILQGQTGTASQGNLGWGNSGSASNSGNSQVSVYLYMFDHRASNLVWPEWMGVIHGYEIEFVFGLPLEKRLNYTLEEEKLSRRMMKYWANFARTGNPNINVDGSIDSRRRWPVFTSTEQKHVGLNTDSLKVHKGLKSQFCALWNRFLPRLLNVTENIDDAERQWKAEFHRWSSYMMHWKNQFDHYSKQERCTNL

Take `S=C(NCCCCNc1c2c(nc3ccccc13)CCCC2)NCCc1c[nH]c2ccccc12`: the IC50 in data set [1] was 25 nM; in data set [2], 76 nM.
In the case of `Clc1ccc2c(NCCCN(CCCCN(CCCNc3ccnc4cc(Cl)ccc34)Cc3ccccc3)Cc3ccccc3)ccnc2c1`, the IC50 in data set [3] was 269 nM.
Take `Nc1c2c(nc3c1C(c1ccc(F)cc1)C1=C(O3)C(=O)c3ccccc3C1=O)CCCC2` (stereo not given): the IC50 in data set [4] worked out at 890 nM; in [5] it was 13.8 µM.
In the case of `O=C(NCCNc1ccnc2cc(Cl)ccc12)c1ccc(-c2nc3ccccc3[nH]2)cc1`, the IC50 at 72 h in data set [6] turned out to be 100 µM. For the same molecule, the GI50 at 72 h in [7] was 16.4 µM.
With `CCN(CCCC(C)Nc1ccnc2cc(Cl)ccc12)CCNC(=O)C(F)(F)C1CCN(CC(O)C(F)(F)F)CC1` (stereo not given), the IC50 in data set [8] stood at 720 nM; in [9], 1600 nM; in [11], 15.9 µM. Also, the CC50 at 48 h in data set [10] is 16.7 µM.
In the case of `Clc1ccc(C2CC(c3ccc(Nc4ccnc5cc(Cl)ccc45)cc3)=NN2)cc1` (stereo not given), the figures for the IC50 in data set [12] and in data set [13] were 6.17 µM and 6.31 µM, respectively.
As to `CCN(CCO)CCCC(C)Nc1ccnc2cc(Cl)ccc12` (stereo not given) [HYDROXYCHLOROQUINE], the IC50 worked out at 3510 nM in [8], 16500 nM in data set [9] and 10 µM in data set [11].
In the case of `CCCCCOc1ccc(/C=N/Nc2cc(C)nc3ccc(Cl)cc23)cc1`, the MIC in data set [14] came out at 25 µg/mL (≈ 65.5 µM); in data set [15], 12.5 µg/mL (≈ 32.7 µM).
As for `COc1cc(/C=C/C(=O)c2cccc(Nc3ccnc4cc(Cl)ccc34)c2)cc(OC)c1OC`, the IC50 came to 2.15 µM in data set [12] and 1.93 µM in data set [13].
On to `Cc1ncsc1/C=N/NC(=O)c1ccc(Nc2ccnc3ccccc23)cc1`, for which the IC50 in data set [16] is above 80 µM.
For the molecule `CCCCCCOc1ccc(/C=N/Nc2cc(C)nc3ccc(Cl)cc23)cc1`, the MIC amounted to 12.5 µg/mL (≈ 31.6 µM) in [17], 12.5 µg/mL (≈ 31.6 µM) in data set [18], 12.5 µg/mL (≈ 31.6 µM) in data set [19] and 6.5 µg/mL (≈ 16.4 µM) in [20].
Take `COc1ccc(/C=C/C(=O)c2ccc(Nc3ccnc4cc(Cl)ccc34)cc2)c(OC)c1`: the IC50 in data set [12] worked out at 13.5 µM; in data set [13], 10.4 µM.
As for `CN(CCCCN(C)CCCNc1ccnc2cc(Cl)ccc12)CCCNc1ccnc2cc(Cl)ccc12`, the IC50 in data set [3] is 269 nM.
With `C=CC1(O)c2ccccc2Nc2c1c(-n1ccnc1)nc1ccc(Br)cc21` (stereo not given), the values for the IC50 in [21] and in data set [22] were 540 nM and 690 nM, respectively.
With `Oc1ccccc1CNCCNc1ccnc2cc(Cl)ccc12`, the figures for the IC50 in [23] and in data set [24] were 30.3 µM and 1970 nM, respectively.
Consider `CC(C)(C)c1ccc(CNCCNc2c3c(nc4ccccc24)CCCCC3)c(C(C)(C)C)c1O`, for which the IC50 stood at 84 nM in data set [2] and 1900 nM in data set [25].
`Cc1ccc(S(=O)(=O)NCCCCCNc2c3c(nc4ccccc24)CCCC3)cc1`: the IC50 amounted to 68 nM in data set [2] and 62 nM in [25].
In the case of `CCN(CCCC(C)Nc1ccnc2cc(Cl)ccc12)CCNC(=O)C(F)(F)C1CCN(C(=O)C2OC(OC)C3OC(C)(C)OC23)CC1` (stereo not given), the IC50 in data set [8] worked out at 1190 nM; in [9] it was 1870 nM; in [11] it was 4.41 µM. Besides, in data set [10], the CC50 at 48 h came out at 16.9 µM.

For orientation: IC50 means the concentration that inhibits the measured activity by half. The GI50 is the concentration giving 50% growth inhibition. The term CC50 denotes the concentration giving 50% cytotoxicity.
